One substance from patent US12059429B2, “Hornerin: a novel non-VEGF mediated angiogenic protein expressed in both human and mouse angiogenic endothelial cells and human pancreatic cancer cells” (University of Virginia Patent Foundation, priority 2018, dated 2024) can be followed below.

For one assay, the system named is murine Hrnr. Put plainly: In vitro siRNA-mediated hornerin knockdown in COCA cells (immunoblot). It is filed as cell-based. The note with it: COCA mouse keratinocytes, densitometry. As for the experimental part: (§1) For in vitro siRNA-mediated hornerin knockdown, COCA cells and human keratinocytes were plated at a density of 0.1×10^6 cells/well in a six-well cluster plate. The cells were treated the following day with Scr siRNA or Hrnr siRNA (Invitrogen; siRNA sequences identical to those utilized in tumor studies) following an established protocol (see Rachow et al., 2013). Briefly, 100 μL of 10 μM siRNA and 12.5 μL of Lipofectamine 2000 (LF2000; Invitrogen) were added to separate 625 μL OptiMEM (Thermo Fisher Scientific) aliquots. After 5 minutes at RT, the solutions were mixed and incubated for an additional 30 minutes, upon which 5 ml of keratinocyte media were added. The cells were incubated overnight in 3 ml of the siRNA/LF2000/media mixture, replenished the following morning with media containing 2 mM CaCl2) to induce differentiation, and lysed in RIPA buffer 8 hours post-media change. Lysate preparations were subjected to immunoblot using the primary antibodies anti-human hornerin (Abcam; 1:1000), anti-mouse hornerin (Santa Cruz Biotechnology, Dallas, TX, USA, sc164605; 1:200), or anti-beta actin (Cell Signaling; 1:4000), and respective secondary antibodies anti-goat HRP (R&D Systems; 1:10,000), and anti-mouse HRP (R&D Systems; 1:10,000). Uncropped hornerin immunoblots are represented in FIGS. 6A and 6B.
A general note: A western blot detects proteins with antibodies after separation by electrophoresis.

For a further assay, the system named is human hornerin. Put plainly: In vitro siRNA treatment of human keratinocytes (immunoblot). It is filed as cell-based. As for the experimental part:
as §1

Another assay relates to tumor vasculature. Kind of assay: Photoacoustic microscopy of tumor vasculature. It is filed as in vivo, mouse. The note with it: day 12. An excerpt:
Using an established PAM system (Wang & Hu, 2012; Ning et al., 2015a; Ning et al., 2015b), the tumor vasculature was characterized in vivo. Two laser wavelengths, 532 and 559 nm, were used to simultaneously quantify microvascular diameter, oxygen saturation, and blood flow at the same spatial scale (Ning et al., 2015a). The applied optical energies were 100 and 75 nJ, which are below the maximum permissible exposure energy. Throughout the experiment, mice were maintained under anesthesia with 1.5% vaporized isoflurane and the body temperature was kept at 37° C. All experimental procedures were carried out in conformity with the laboratory animal protocol approved by the Animal Care and Use Committee at the University of Virginia.

Another assay relates to tumor vascularity. Put plainly: DCE-MRI and Ktrans measurement of L3.6pl tumors. It is filed as in vivo, mouse. As for the experimental part: To assess the in vivo function of tumor vascularity, DCE-MRI was performed on a 7.0 T Clinscan small animal imaging system (Bruker, Ettlingen, Germany) using a 30 mm inner-diameter birdcage radiofrequency coil. Mice (N=7) were imaged prior to treating tumors with Hrnr and Scr siRNA and again 6 days after treatment. Mice treated with the VEGFR inhibitor AV-951 (N=5) were image pre-siRNA treatment and 6 days posttreatment. Mice were anesthetized with 1.25% isoflurane anesthesia, which was maintained during imaging. Respiration and ECG were monitored during imaging using an MRI-compatible system (SA Instruments, Stony Brook, NY, USA). An indwelling tail vein catheter was established for administration of the gadolinium contrast agent Gd-DTPA, which is required in DCE imaging. Mice were placed supine in the imaging system, and body temperature was maintained at 36° C.±1° C. using circulating, temperature controlled water. Tumors were localized using a spin-echo imaging sequence, and an imaging plane that transected both tumors was chosen for DCE imaging.
A dual-Gd-bolus DCE-MRI acquisition strategy (Christian et al., 2004) was employed, which uses a low dose of contrast agent to accurately acquire the undistorted Gd concentration vs. time curve in the blood pool and a higher dose of contrast agent to acquire the Gd concentration vs. time curve in the tumor with high signal-to-noise ratio, since Gd-DTPA is known to have signal saturation effects at high doses in the blood pool (Christian et al., 2004). […]

Consider “5′-GCAUGGAUCUUGUUGCGGUTT-3′ [Hrnr siRNA]”, for which the “reduction in hornerin expression (knockdown) relative to Scr siRNA” value with murine Hrnr amounted to 60%. Moreover, the “loss of hornerin relative to Scr siRNA” value with human hornerin (similar conditions) was around 10%. In addition, in the assay on human hornerin (similar siRNA conditions), the “hornerin expression level relative to Scr siRNA” value is recorded as around 90%. Further, in the assay with tumor vasculature, the “tumor blood hemoglobin levels” value is given as “remained unchanged” and the “tumor blood oxygen saturation compared to control” value is on record as 1.7 fold. For the same substance, the “tumor concentration of Gd-DTPA” value in the assay on tumor vascularity (after 6 days of siRNA injection every other day, vs Scr siRNA) is recorded as “two-fold reduced”. The “reduction in Ktrans” value in the assay with tumor vascularity (after 6 days of siRNA injections, vs control) worked out at 2.4 fold.
